Each compound was assayed against Factor D (Homo sapiens (Human), UniProt P00746) (assay: Factor D esterolytic assay (Z-Lys-SBzl substrate, DTNB, 405 nm)). Details: Z-Lys-SBzl 1.29 mM, pH 7.5, 10% DMSO, tested a minimum of three times, read-out: Measured Ki (IC50) Value for Compounds: IC50.
Format: biochemical
Summary of the method: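 Human Factor D ([…]) with 1.29 mM Z-Lys-SBzl in 100 mM HEPES, 500 mM NaCl, pH 7.5, 10% DMSO; substrate added immediately or after room-temperature preincubation. Released thiol reacted with DTNB, rate followed at 405 nm for 600 sec, 690 nm background subtracted. IC50 from percent inhibition versus uninhibited rate, n≥3.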

Sequence of Factor D (P00746 26-253): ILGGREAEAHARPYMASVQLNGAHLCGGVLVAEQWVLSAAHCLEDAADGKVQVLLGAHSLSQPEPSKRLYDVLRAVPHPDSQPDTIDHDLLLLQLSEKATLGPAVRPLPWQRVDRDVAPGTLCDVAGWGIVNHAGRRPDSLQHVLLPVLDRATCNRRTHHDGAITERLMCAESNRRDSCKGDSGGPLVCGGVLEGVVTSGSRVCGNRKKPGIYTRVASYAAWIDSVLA

Structure (SMILES) | IC50
Cc1cc(-c2ccc(CC(=O)O)c(OCc3cc(-c4cccc(CN)c4)c4occc4c3)c2)ccn1 [Compound 320c, 2-(2-((7-(3-(aminomethyl)phenyl)benzofuran-5-yl)methoxy)-4-(2-methylpyridin-4-yl)phenyl)acetic acid] | < 1000 nM
COCc1cc2cc(COc3cc(C(N)=O)ccc3CC(=O)O)cc(-c3cccc(CN)c3)c2o1 [Compound 309h, 2-(2-((7-(3-(aminomethyl)phenyl)-2-(methoxymethyl)benzofuran-5-yl)methoxy)-4-carbamoylphenyl)acetic acid] | < 1000 nM
NCc1cccc(-c2cc(COc3cc(C(N)=O)ccc3CC(=O)O)cc3ccoc23)c1 [Compound 238c, 2-(2-((7-(3-(aminomethyl)phenyl)benzofuran-5-yl)methoxy)-4-carbamoylphenyl)acetic acid] | < 1000 nM
NCc1ccc(-c2cc(CC(=O)N3[C@@H]4C[C@@H]4C[C@H]3C(=O)NCc3cccc(Cl)c3F)cc3ccoc23)cc1 [Compound 275e, (1R,3S,5R)-2-(2-(7-(4-(aminomethyl)phenyl)benzofuran-5-yl)acetyl)-N-(3-chloro-2-fluorobenzyl)-2-azabicyclo[3.1.0]hexane-3-carboxamide] | 1000 to 10000 nM
NC(CF)c1cccc(-c2cc(COc3ccccc3CC(=O)O)cc3ccoc23)c1F (single isomer, unassigned; (+)) [Compound 402f, (+)-2-(2-((7-(3-(1-amino-2-fluoroethyl)-2-fluorophenyl)benzofuran-5-yl)methoxy)phenyl)acetic acid] | < 1000 nM
NCc1cccc(-c2cc(C(=O)Nc3ccccc3CC(=O)O)cc3[nH]ccc23)c1F [Compound 37c, 2-(2-(4-(3-(aminomethyl)-2-fluorophenyl)-1H-indole-6-carboxamido)phenyl)acetic acid] | < 1000 nM
NCc1nccc(-c2cc(COc3ccccc3CC(=O)O)cc3ccoc23)c1F [Compound 80e, 2-(2-((7-(2-(aminomethyl)-3-fluoropyridin-4-yl)benzofuran-5-yl)methoxy)phenyl)acetic acid] | < 1000 nM
NCc1cccc(-c2cc(C(=O)Nc3ccccc3CC(=O)O)c3ncnn3c2)c1 [Compound 20e, 2-(2-(6-(3-(aminomethyl)phenyl)-[1,2,4]triazolo[1,5-a]pyridine-8-carboxamido)phenyl)acetic acid] | > 10000 nM
NCc1cccc(-c2cc(COc3ccccc3CC(=O)O)cc3cc(COCc4cccnc4)oc23)c1 [Compound 302f, 2-(2-((7-(3-(aminomethyl)phenyl)-2-((pyridin-3-ylmethoxy)methyl)benzofuran-5-yl)methoxy)phenyl)acetic acid] | < 1000 nM
Cc1ccc(S(=O)(=O)n2ccc3cc(COc4ccccc4CC(=O)O)cc(-c4cccc(CN)c4)c32)cc1 [Compound 146g, 2-(2-((7-(3-(aminomethyl)phenyl)-1-tosyl-1H-indol-5-yl)methoxy)phenyl)acetic acid] | 1000 to 10000 nM
N#Cc1ccc(-c2ccc(CC(=O)O)c(OCc3cc(-c4cccc(CN)c4)c4occc4c3)c2)s1 [Compound 324c, 2-(2-((7-(3-(aminomethyl)phenyl)benzofuran-5-yl)methoxy)-4-(5-cyanothiophen-2-yl)phenyl)acetic acid] | < 1000 nM
Cc1ccc(CC(=O)O)c(OCc2cc(-c3cccc(CN)c3F)c3occc3c2F)c1 [Compound 348b, 2-(2-((7-(3-(aminomethyl)-2-fluorophenyl)-4-fluorobenzofuran-5-yl)methoxy)-4-methylphenyl)acetic acid] | < 1000 nM
C[C@H](N)c1cccc(-c2cc(COc3ccccc3CC(=O)O)cc3ccoc23)c1 [Compound 72c, (S)-2-(2-((7-(3-(1-aminoethyl)phenyl)benzofuran-5-yl)methoxy)phenyl)acetic acid] | < 1000 nM
CCOc1ccc(CC(=O)O)c(OCc2cc(-c3cccc(CN)c3)c3occc3c2)c1 [Compound 265g, 2-(2-((7-(3-(aminomethyl)phenyl)benzofuran-5-yl)methoxy)-4-ethoxyphenyl)acetic acid] | < 1000 nM
NCc1cccc(-c2nc(C(=O)Nc3ccsc3CC(=O)O)cc3ccoc23)c1 [Compound 147c, 2-(3-(7-(3-(aminomethyl)phenyl)furo[2,3-c]pyridine-5-carboxamido)thiophen-2-yl)acetic acid] | < 1000 nM
NCc1cccc(-c2cc(COc3cccc(F)c3CC(=O)O)cc3ccoc23)c1 [Compound 328f, 2-(2-((7-(3-(aminomethyl)phenyl)benzofuran-5-yl)methoxy)-6-fluorophenyl)acetic acid] | < 1000 nM
NCc1cccc(-c2nc(C(=O)Nc3ccccc3CC(=O)O)c3ccccc3n2)c1 [Compound 64f, 2-(2-(2-(3-(aminomethyl)phenyl)quinazoline-4-carboxamido)phenyl)acetic acid] | < 1000 nM
C[C@@H](N)c1cccc(-c2nc(C(=O)Nc3ccccc3CC(=O)O)c3cccn3n2)c1F [Compound 33f, (R)-2-(2-(2-(3-(1-aminoethyl)-2-fluorophenyl)pyrrolo[2,1-f][1,2,4]triazine-4-carboxamido)phenyl)acetic acid] | < 1000 nM
NC(=O)c1cccc(-c2cc(COc3ccccc3CC(=O)O)cc3ccoc23)c1 [Compound 85d, 2-(2-((7-(3-carbamoylphenyl)benzofuran-5-yl)methoxy)phenyl)acetic acid] | 1000 to 10000 nM
NCc1cccc(-c2cc(COc3ccccc3CC(=O)O)cc3c2ccn3-c2ccccc2)c1 [Compound 351f, 2-(2-((4-(3-(aminomethyl)phenyl)-1-phenyl-1H-indol-6-yl)methoxy)phenyl)acetic acid] | < 1000 nM
Cn1cc(-c2ccc(CC(=O)O)c(OCc3cc(-c4cccc(CN)c4)c4occc4c3)c2)cn1 [Compound 396e, 2-(2-((7-(3-(aminomethyl)phenyl)benzofuran-5-yl)methoxy)-4-(1-methyl-1H-pyrazol-4-yl)phenyl)acetic acid] | < 1000 nM
COCc1cc2cc(COc3cc(OC)ccc3CC(=O)O)cc(-c3ccnc(CN)c3)c2o1 [Compound 472b, 2-(2-((7-(2-(aminomethyl)pyridin-4-yl)-2-(methoxymethyl)benzofuran-5-yl)methoxy)-4-methoxyphenyl)acetic acid] | < 1000 nM
NCc1cccc(-c2cc(COc3ccccc3CC(=O)O)cc3c(C(F)(F)F)coc23)c1 [Compound 154g, 2-(2-((7-(3-(aminomethyl)phenyl)-3-(trifluoromethyl)benzofuran-5-yl)methoxy)phenyl)acetic acid] | < 1000 nM
NCc1cccc(-c2cc(C(=O)Nc3ccccc3CC(=O)O)cc3cc[nH]c23)c1 [Compound 158c, 2-(2-(7-(3-(aminomethyl)phenyl)-1H-indole-5-carboxamido)phenyl)acetic acid] | 1000 to 10000 nM
Cc1ccc(S(=O)(=O)n2ccc3c(-c4cccc(CN)c4F)cc(COc4ccccc4CC(=O)O)cc32)cc1 [Compound 57c, 2-(2-((4-(3-(aminomethyl)-2-fluorophenyl)-1-tosyl-1H-indol-6-yl)methoxy)phenyl)acetic acid] | < 1000 nM
NCc1cccc(-c2cc(COc3ccccc3CC(=O)O)cc3[nH]ncc23)c1F [Compound 124g, 2-(2-((4-(3-(aminomethyl)-2-fluorophenyl)-1H-indazol-6-yl)methoxy)phenyl)acetic acid] | < 1000 nM
NCc1cccc(-c2cc(COc3ccc(C4CC4)cc3CC(=O)O)cc3ccoc23)c1 [Compound 130g, 2-(2-((7-(3-(aminomethyl)phenyl)benzofuran-5-yl)methoxy)-5-cyclopropylphenyl)acetic acid] | < 1000 nM

— US11370774B2, “Substituted benzofuran, benzopyrrole, benzothiophene, and structurally related complement inhibitors” (BioCryst Pharmaceuticals, Inc., priority 2018, dated 2022)
